Test results reported in patent US20220380383A1, “NEUROPROTECTIVE PDI MODULATING SMALL MOLECULES AND METHODS OF USE THEREOF” (THE TRUSTEES OF COLUMBIA UNIVERSITY IN THE CITY OF NEW YORK, priority 2018, published 2022).
Values after ≈ are worked out from the molar mass of the structure shown. Where two headings read alike, the source gives them in different places.

Legend:
[1] = Solubility (stock solvent)
PC12 mHTTQ103 cells = experiment: Rescue of PC12 cells from mHTTQ103-induced cell death; format: cell-based, rat; conditions: for EC50: Rattus norvegicus, PC-12
[2] = target: T1, human catalytic PDI A1 a domain (PDIa) (Homo sapiens, UniProt P07237); experiment: Isothermal titration calorimetry (ITC) binding to PDIa
T1 construct: made in house; host or cells: Escherichia coli BL21-Gold (DE3)
Protocol: All ITC experiments were carried out at 25° C. on MicoCal Auto-ITC200 system (GE Healthcare). […] ITC titration experiments were carried out at 25° C. with 19 injections, 2 μl per injection, and 180 seconds between each injection. The reference cell power was set to 5 μcal/sec. A control experiment was performed for each compound, where each compound was titrated into buffer to account for heat released due to dilution. This background was subtracted from test data before a final dissociation constant was obtained. […] Gibbs free energy, ΔG, was calculated from equation ΔG=ΔH-TΔS. All other parameters, Ka, n, ΔH, ΔS, were determined directly from the titration data.
LOC14 analogs were designed and synthesized as described in the synthetic schemes. The analogs were evaluated for their binding to PDIa using isothermal titration calorimetry (ITC) (results of certain compounds are shown in FIGS. 1A-1E). Next, the analogs were tested for their ability to rescue PC12 cells from mHTT^Q103 induced cell death in a dose-dependent manner (results of certain compounds are shown in FIG. 2).

[3] = Tables 5-13, solvent not given (DMSO in Table 1)
[4] = Tables 5-13, PC12 cells, read-out: EC50
[5] = rescue from mHTTQ103 induced cell death
[6] = Tables 5-13, NA = not active, read-out: Kd
[7] = rescue from mHTTQ103 induced cell death, read-out: PC12 cells EC50

T1 sequence (P07237 18-134): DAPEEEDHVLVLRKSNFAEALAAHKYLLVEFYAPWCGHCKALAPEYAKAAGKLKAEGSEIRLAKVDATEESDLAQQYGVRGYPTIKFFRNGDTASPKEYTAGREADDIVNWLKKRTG

SMILES | Solubility [1] [mM in DMSO] | Solubility [1, 3] [mM] | EC50 (PC12 mHTTQ103 cells; [4]) [µM] | Max Viability (%) (PC12 mHTTQ103 cells; Tables 5-13, PC12 cells) | PC12 cells Max % Viability (PC12 mHTTQ103 cells; [5]) [%] | Kd [2, 6] [nM] | Kd ([2]; N/A = not active, read-out: ITC KD) [nM] | EC50 (PC12 mHTTQ103 cells; [7]) [µM] | Kd ([2]; Tables 6, 11, 12, read-out: Kd (nM), first value of two-site binding) [nM] | Kd ([2]; Tables 6, 11, 12, read-out: Kd (nM), second value of two-site binding) [nM] | ITC KD ([2]; N/A = not active) | PC12 cells EC50 (PC12 mHTTQ103 cells; [5])
O=c1c2ccccc2sn1CN1CCCCC1 [LC-1] | 100 | 100 (≈ 24.8 mg/mL) | 0.459 | 67 | 66.57 | 107 | – | – | – | – | – | –
CN1CCN(Cn2sc3ccccc3c2=O)CC1 [LC-2] | 100 | 100 (≈ 26.3 mg/mL) | 0.415 | 63 | 63.29 | 134 ± 20 | – | – | – | – | – | –
O=c1c2ccccc2sn1CN1CCSCC1 [LC-3] | – | 100 (≈ 26.6 mg/mL) | 0.463 | 63 | 63.05 | – | 97.1 | – | – | – | – | –
O=c1c2ccccc2sn1CN1CCC(CO)CC1 [LC-4] | 100 | 100 (≈ 27.8 mg/mL) | 0.343 | 60 | 60.18 | 265 | – | 0.343 | – | – | – | –
O=c1c2ccccc2sn1Cc1ccccc1 [LC-5] | 100 | 100 (≈ 24.1 mg/mL) | – | – | – | – | – | – | 43 | 2270 | – | –
O=C(Nc1ccccc1)n1sc2ccccc2c1=O [LC-6] | 30 | 30 (≈ 8.11 mg/mL) | 0.476 | 66 | 66.47 | – | – | – | – | – | KD = N/A irreversible or not active | –
O=c1c2ccccc2sn1CN1CCC(O)CC1 [LC-7] | 100 | 100 (≈ 26.4 mg/mL) | 0.441 | 72 | 71.98 | – | – | – | – | – | – | –
CC(C)(C)OC(=O)NC1CCN(Cn2sc3ccccc3c2=O)CC1 [LC-8] | – | – | 0.384 | 68 | 68.37 | 94 | – | 0.384 | – | – | – | –
O=C(C1CC1)N1CCN(C(=O)n2sc3ccccc3c2=O)CC1 [LC-14] | – | – | > 50 | 34 | 33.58 | – | – | – | – | – | KD = N/A irreversible or not active | –
CC(C)(C)OC(=O)N1CCC(COc2nsc3ccccc23)CC1 [LC-16] | – | – | > 50 | 30 | 30.24 | – | – | – | – | – | KD = N/A irreversible or not active | –
O=C(Nc1ccccc1)c1ccccc1S [LC-19] | – | – | – | – | – | – | – | – | – | – | KD = N/A irreversible or not active | –
O=c1c2ccccc2sn1-c1ccc(N2CCOCC2)cc1 [LC-27] | – | – | 1.83 | 28 | 28.37 | – | – | – | – | – | KD = N/A irreversible or not active | –
O=c1[nH]sc2ncccc12 [LC-47, isothiazolo[5,4-b]pyridin-3(2H)-one] | – | – | > 50 | 36 | 36.31 | – | – | – | – | – | KD = N/A irreversible or not active | –
O=C(C1CC1)N1CCN(Cn2oc3ccccc3c2=O)CC1 [Oxy- LOC14] | 100 | – | – | – | 8.16 | – | – | – | – | – | – | Not Active
